From patent publication US20220287995A1, “COMPOSITIONS AND METHODS FOR INHIBITING BACTERIAL VIRULENCE AND FLIM-BASED DEVICE AND METHOD FOR ANTIBIOTIC SUSCEPTIBILITY TESTING” (THE REGENTS OF THE UNIVERSITY OF CALIFORNIA, priority 2019, published 2022)

System: P. aeruginosa
Test: Surface density measurement of P. aeruginosa from virulence assays
Format: cell-based, Pseudomonas aeruginosa
Settings: virulence assays after 6 hours of growth, carbon source 0.2%
Experimental: The density of P. aeruginosa cells on surface was measured as described previously (1) using amoebae cell viability phase contrast images that were acquired using a 10× or 20× objective. The IJ_Isodata algorithm (ImageJ 1.52q) was applied to phase contrast images to construct cell boundary masks. The cell density was computed by dividing the area covered by P. aeruginosa by the total area of the image.

## O=C(O)CC(O)(CC(=O)O)C(=O)O [citrate]
  surface density of P. aeruginosa: did not decrease the surface density
